{
  "source": "patent US20240083857A1",
  "about": "“2-Methyl-Quinazolines” (Bayer Pharma Aktiengesellschaft, priority 2017, published 2024)",
  "key": {"[1]": {"target": "human SOS1 (loading of human K-Ras^G12C-GDP with fluorescent GTP-analog) (Homo sapiens, UniProt Q07889)", "test": "Biochemical assay 3: K-Ras^G12C activation assay by hSOS1 (HTRF)", "settings": "no GTP; for IC50: read-out: Assay 3 (KRAS-Activation by SOS no GTP) activity expressed as IC50; for inhibition at 20 µM: read-out: Assay 3 (KRAS-Activation by SOS no GTP) activity expressed as % inhibition at 20 μM"}, "[2]": {"target": "K-Ras^G12C : hSOS1 interaction (Homo sapiens, UniProt Q07889)", "test": "Biochemical assay 1: K-Ras^G12C interaction assay with hSOS1 (HTRF)", "format": "binding", "settings": "read-out: Assay 1 (KRAS-SOS Interaction) activity expressed as IC50"}},
  "data": [
    {"molecule": "COc1cc2nc(C)nc(NC(C)c3ccc(-c4cnc5n4CCC5)s3)c2cc1OC", "note": "(single isomer, unassigned; enantiomer 1) [Example 328, N-{1-[5-(6,7-dihydro-5H-pyrrolo[1,2-a]imidazol-3-yl)thiophen-2-yl]ethyl}-6,7-dimethoxy-2-methylquinazolin-4-amine, Enantiomer 1]", "values": [
      {"measurement": "IC50", "setting": "[1]", "value": 669, "unit": "nM"},
      {"measurement": "IC50", "setting": "[2]", "value": 142, "unit": "nM"}
    ]},
    {"molecule": "COc1cc2nc(C)nc(NC(C)c3ccc(-c4cnc5n4CCC5)s3)c2cc1OC", "note": "(single isomer, unassigned; enantiomer 2) [Example 329, N-{1-[5-(6,7-dihydro-5H-pyrrolo[1,2-a]imidazol-3-yl)thiophen-2-yl]ethyl}-6,7-dimethoxy-2-methylquinazolin-4-amine, Enantiomer 2]", "values": [
      {"measurement": "IC50", "setting": "[1]", "value": 10600, "unit": "nM"},
      {"measurement": "IC50", "setting": "[2]", "value": 2410, "unit": "nM"}
    ]},
    {"molecule": "COc1cc2nc(C)nc(NC(C)c3ccc(-c4ccc(F)cc4CNC(=O)[C@H]4CCCN4)s3)c2cc1OC", "note": "(stereo in doubt) [Example 316, N-[2-(5-{1-[(6,7-dimethoxy-2-methylquinazolin-4-yl)amino]ethyl}thiophen-2-yl)-5-fluorobenzyl]-prolinamide]", "values": [
      {"measurement": "IC50", "setting": "[1]", "value": 308, "unit": "nM"},
      {"measurement": "IC50", "setting": "[2]", "value": 271, "unit": "nM"}
    ]},
    {"molecule": "COc1cc2nc(C)nc(NC(C)c3cccc4scnc34)c2cc1OC", "note": "(centres unmarked) [Example 14, N-[1-(1,3-benzothiazol-4-yl)ethyl]-6,7-dimethoxy-2-methylquinazolin-4-amine]", "values": [
      {"measurement": "IC50", "setting": "[1]", "value": 1830, "unit": "nM"},
      {"measurement": "IC50", "setting": "[2]", "value": 666, "unit": "nM"}
    ]},
    {"molecule": "COc1cc2nc(C)nc(NC(C)c3cccc4ccsc34)c2cc1OC", "note": "(centres unmarked) [Example 15, N-[1-(1-benzothiophen-7-yl)ethyl]-6,7-dimethoxy-2-methylquinazolin-4-amine]", "values": [
      {"measurement": "IC50", "setting": "[1]", "value": 324, "unit": "nM"},
      {"measurement": "IC50", "setting": "[2]", "value": 126, "unit": "nM"}
    ]},
    {"molecule": "COc1cc2nc(C)nc(NC(C)c3cc(C)cc4[nH]ncc34)c2cc1OC", "note": "(centres unmarked) [Example 16, 6,7-dimethoxy-2-methyl-N-[1-(6-methyl-1H-indazol-4-yl)ethyl]quinazolin-4-amine]", "values": [
      {"measurement": "IC50", "setting": "[1]", "value": 8170, "unit": "nM"},
      {"measurement": "IC50", "setting": "[2]", "value": 3250, "unit": "nM"}
    ]},
    {"molecule": "COc1cc2nc(C)nc(NC(C)c3cccc4c3cnn4C)c2cc1OC", "note": "(centres unmarked) [Example 17, 6,7-dimethoxy-2-methyl-N-[1-(1-methyl-1H-indazol-4-yl)ethyl]quinazolin-4-amine]", "values": [
      {"measurement": "IC50", "setting": "[1]", "value": 712, "unit": "nM"},
      {"measurement": "IC50", "setting": "[2]", "value": 270, "unit": "nM"}
    ]},
    {"molecule": "COc1cc2nc(C)nc(NC(C)c3c(F)ccc4[nH]ncc34)c2cc1OC", "note": "(centres unmarked) [Example 18, N-[1-(5-fluoro-1H-indazol-4-yl)ethyl]-6,7-dimethoxy-2-methylquinazolin-4-amine]", "values": [
      {"measurement": "IC50", "setting": "[1]", "value": 10500, "unit": "nM"},
      {"measurement": "IC50", "setting": "[2]", "value": 6500, "unit": "nM"}
    ]},
    {"molecule": "COc1cc2nc(C)nc(NC(C)c3ccc4c(c3)OCCO4)c2cc1OC", "note": "(centres unmarked) [Example 19, N-[1-(2,3-dihydro-1,4-benzodioxin-6-yl)ethyl]-6,7-dimethoxy-2-methylquinazolin-4-amine]", "values": [
      {"measurement": "inhibition at 20 µM", "setting": "[1]", "value": 44, "unit": "%"},
      {"measurement": "IC50", "setting": "[2]", "value": 7780, "unit": "nM"}
    ]},
    {"molecule": "COc1cc2nc(C)nc(NC(C)c3cc4ccccc4o3)c2cc1OC", "note": "(centres unmarked) [Example 20, N-[1-(1-benzofuran-2-yl)ethyl]-6,7-dimethoxy-2-methylquinazolin-4-amine]", "values": [
      {"measurement": "inhibition at 20 µM", "setting": "[1]", "value": 41, "unit": "%"},
      {"measurement": "IC50", "setting": "[2]", "value": 8420, "unit": "nM"}
    ]},
    {"molecule": "COc1cc2nc(C)nc(NC(C)c3cccc(OC)c3OC)c2cc1OC", "note": "(centres unmarked) [Example 21, N-[1-(2,3-dimethoxyphenyl)ethyl]-6,7-dimethoxy-2-methylquinazolin-4-amine]", "values": [
      {"measurement": "IC50", "setting": "[1]", "value": 11100, "unit": "nM"},
      {"measurement": "IC50", "setting": "[2]", "value": 3160, "unit": "nM"}
    ]},
    {"molecule": "COc1cc2nc(C)nc(N[C@H](C)c3cccc(-c4ccccc4CN)c3)c2cc1OC", "note": "[Example 258, N-{(1R)-1-[2′-(aminomethyl)biphenyl-3-yl]ethyl}-6,7-dimethoxy-2-methylquinazolin-4-amine]", "values": [
      {"measurement": "IC50", "setting": "[1]", "value": 245, "unit": "nM"},
      {"measurement": "IC50", "setting": "[2]", "value": 204, "unit": "nM"}
    ]},
    {"molecule": "COc1cc2nc(C)nc(NC(C)c3csc(-c4ccccc4CN)c3)c2cc1OC", "note": "(centres unmarked) [Example 259, N-[1-{5-[2-(aminomethyl)phenyl]thiophen-3-yl}ethyl]-6,7-dimethoxy-2-methylquinazolin-4-amine]", "values": [
      {"measurement": "IC50", "setting": "[1]", "value": 650, "unit": "nM"},
      {"measurement": "IC50", "setting": "[2]", "value": 402, "unit": "nM"}
    ]},
    {"molecule": "COc1cc2nc(C)nc(N[C@H](C)c3cccc(CN)c3)c2cc1OC", "note": "[Example 260, N-{(1R)-1-[3-(aminomethyl)phenyl]ethyl}-6,7-dimethoxy-2-methylquinazolin-4-amine]", "values": [
      {"measurement": "IC50", "setting": "[1]", "value": 5680, "unit": "nM"},
      {"measurement": "IC50", "setting": "[2]", "value": 4880, "unit": "nM"}
    ]},
    {"molecule": "COc1cc2nc(C)nc(N[C@H](C)c3cccc(-c4cnc5n4CCC5)c3)c2cc1OC", "note": "[Example 261, N-{(1R)-1-[3-(6,7-dihydro-5H-pyrrolo[1,2-a]imidazol-3-yl)phenyl]ethyl}-6,7-dimethoxy-2-methylquinazolin-4-amine]", "values": [
      {"measurement": "IC50", "setting": "[1]", "value": 1100, "unit": "nM"},
      {"measurement": "IC50", "setting": "[2]", "value": 839, "unit": "nM"}
    ]},
    {"molecule": "COc1cc2nc(C)nc(NC(C)c3ccc(-c4ccccc4CN(C)C)s3)c2cc1OC", "note": "(centres unmarked) [Example 262, N-[1-(5-{2-[(dimethylamino)methyl]phenyl}thiophen-2-yl)ethyl]-6,7-dimethoxy-2-methylquinazolin-4-amine]", "values": [
      {"measurement": "IC50", "setting": "[1]", "value": 51.1, "unit": "nM"},
      {"measurement": "IC50", "setting": "[2]", "value": 40.3, "unit": "nM"}
    ]},
    {"molecule": "CNCc1ccccc1-c1cc(C(C)Nc2nc(C)nc3cc(OC)c(OC)cc23)cs1", "note": "(centres unmarked) [Example 263, 6,7-dimethoxy-2-methyl-N-[1-(5-{2-[(methylamino)methyl]phenyl}thiophen-3-yl)ethyl]quinazolin-4-amine]", "values": [
      {"measurement": "IC50", "setting": "[1]", "value": 324, "unit": "nM"},
      {"measurement": "IC50", "setting": "[2]", "value": 237, "unit": "nM"}
    ]},
    {"molecule": "COc1cc2nc(C)nc(NC(C)c3cc(Br)cs3)c2cc1OC", "note": "(centres unmarked) [Example 264, N-[1-(4-bromothiophen-2-yl)ethyl]-6,7-dimethoxy-2-methylquinazolin-4-amine]", "values": [
      {"measurement": "IC50", "setting": "[1]", "value": 4610, "unit": "nM"},
      {"measurement": "IC50", "setting": "[2]", "value": 5940, "unit": "nM"}
    ]},
    {"molecule": "COc1cc2nc(C)nc(NC(C)c3ccc(-c4cccc(CN)c4)s3)c2cc1OC", "note": "(centres unmarked) [Example 265, N-[1-{5-[3-(aminomethyl)phenyl]thiophen-2-yl}ethyl]-6,7-dimethoxy-2-methylquinazolin-4-amine]", "values": [
      {"measurement": "IC50", "setting": "[1]", "value": 1110, "unit": "nM"},
      {"measurement": "IC50", "setting": "[2]", "value": 2770, "unit": "nM"}
    ]},
    {"molecule": "COc1cc2nc(C)nc(NC(C)c3ccc(-c4ccc(CN)cc4)s3)c2cc1OC", "note": "(centres unmarked) [Example 266, N-[1-{5-[4-(aminomethyl)phenyl]thiophen-2-yl}ethyl]-6,7-dimethoxy-2-methylquinazolin-4-amine]", "values": [
      {"measurement": "IC50", "setting": "[1]", "value": 3740, "unit": "nM"},
      {"measurement": "IC50", "setting": "[2]", "value": 3610, "unit": "nM"}
    ]},
    {"molecule": "COc1cc2nc(C)nc(NC(C)c3cc(-c4ccn(CCN5CCCC5)n4)cs3)c2cc1OC", "note": "(centres unmarked) [Example 267, 6,7-dimethoxy-2-methyl-N-[1-(4-{1-[2-(pyrrolidin-1-yl)ethyl]-1H-pyrazol-3-yl}thiophen-2-yl)ethyl]quinazolin-4-amine]", "values": [
      {"measurement": "IC50", "setting": "[1]", "value": 1780, "unit": "nM"},
      {"measurement": "IC50", "setting": "[2]", "value": 3390, "unit": "nM"}
    ]},
    {"molecule": "CNCc1ccccc1-c1cccc([C@@H](C)Nc2nc(C)nc3cc(OC)c(OC)cc23)c1", "note": "[Example 268, 6,7-dimethoxy-2-methyl-N-[(1R)-1-{2′-[(methylamino)methyl]biphenyl-3-yl}ethyl]quinazolin-4-amine]", "values": [
      {"measurement": "IC50", "setting": "[1]", "value": 189, "unit": "nM"},
      {"measurement": "IC50", "setting": "[2]", "value": 166, "unit": "nM"}
    ]},
    {"molecule": "COc1cc2nc(C)nc(NC(C)c3cc(-c4ccc(F)cc4CN)cs3)c2cc1OC", "note": "(centres unmarked) [Example 269, N-[1-{4-[2-(aminomethyl)-4-fluorophenyl]thiophen-2-yl}ethyl]-6,7-dimethoxy-2-methylquinazolin-4-amine]", "values": [
      {"measurement": "IC50", "setting": "[1]", "value": 135, "unit": "nM"},
      {"measurement": "IC50", "setting": "[2]", "value": 162, "unit": "nM"}
    ]},
    {"molecule": "COc1cc2nc(C)nc(NC(C)c3cc(-c4ccccc4CN)cs3)c2cc1OC", "note": "(centres unmarked) [Example 270, N-[1-{4-[2-(aminomethyl)phenyl]thiophen-2-yl}ethyl]-6,7-dimethoxy-2-methylquinazolin-4-amine]", "values": [
      {"measurement": "IC50", "setting": "[1]", "value": 98, "unit": "nM"},
      {"measurement": "IC50", "setting": "[2]", "value": 91.4, "unit": "nM"}
    ]},
    {"molecule": "COc1cc2nc(C)nc(NC(C)c3cc(-c4cnc5n4CCC5)cs3)c2cc1OC", "note": "(centres unmarked) [Example 272, N-{1-[4-(6,7-dihydro-5H-pyrrolo[1,2-a]imidazol-3-yl)thiophen-2-yl]ethyl}-6,7-dimethoxy-2-methylquinazolin-4-amine]", "values": [
      {"measurement": "IC50", "setting": "[1]", "value": 2500, "unit": "nM"},
      {"measurement": "IC50", "setting": "[2]", "value": 1820, "unit": "nM"}
    ]}
  ]
}
